Measured values as given in patent US10925858B2, “S-nitrosoglutathione (GSNO) and GSNO reductase inhibitors for use in therapy” (MUSC FOUNDATION FOR RESEARCH DEVELOPMENT, priority 2017, dated 2021).

Key:
[1] = tested on: protein-associated S-nitrosothiols; experiment: Assay for protein-associated S-nitrosylation (biotin-switch) in hBMVECs; assay type: cell-based, human; conditions: various concentrations, incubated 2 hr
Description: Cell culture: Primary human brain microvascular endothelial cells (hBMVECs) were purchased from Angio-Proteomie (Cat #: cAP-0002, Atlanta, Ga.). The cells were cultured in cell culture flasks or plates precoated with Quick Coating Solution (Angio-Proteomie; Cat #: cAP-01) and maintained in Endothelial Growth Medium (Angio-Proteomie; Cat #: cAP-02) at 37° C. under 5% CO2/95% air. When the cells were almost confluent, the medium was replaced with endothelial basal medium (Angio-Proteomie; Cat #: cAP-03) containing 0.5% fetal bovine serum (FBS; Life Technologies, Grand Island, N.Y.) about 8-12 hours before the experiment. No institutional approval was required for this study. The study was not pre-registered.
Assay for protein-associated S-nitrosylation: Protein S-Nitrosylation was analyzed by using biotin-switch method as described in our previous reports (Kim et al., 2014; Prasad et al., 2007). hBMVECs were lysed in 250 mM HEPES, pH 7.7, 1 mM EDTA, 0.1 mM neocuproine, 1% Nonidet P-40, 150 mM NaCl, 1 mM phenylmethanesulfonylfluoride, 20 mM methyl methanethiosulfonate (MMTS), 80 μM carmustine, protease inhibitor mixture (Sigma-Aldrich), and mixed with an equal volume of 25 mM HEPES, pH 7.7, 0.1 mM EDTA, 10 μM neocuproine, 5% SDS, 20 mM MMTS and incubated at 50° C. for 20 min. […] Following acetone precipitation, biotinylated (S-nitrosylated) proteins were analyzed by Western analysis. […]

[2] = tested on: tight junction proteins (ZO-1, Occludin, Claudin-5); experiment: Real-time PCR, mRNA expression of tight junction proteins in brain microvessels of diabetic mice; assay type: in vivo
Description: Male laca mice weighing between 28-32 g were procured from the Central Animal House, Panjab University, Chandigarh. The animals were acclimatized and were fed with standard pellet diet and water ad libitum. The experimental protocols were approved by the Institutional Ethics Committee and were conducted according to Indian National Science Academy (INSA) guidelines for the use and care of experimental animals. The animals were divided into four groups: (i) Control animals received phosphate buffered saline (PBS) throughout the study; (ii) Control+GSNO animals were administered with GSNO 100 μg/kg body weight orally, dissolved in PBS after every 24 h for 8 weeks; (iii) Diabetic animals were injected with STZ at a dose of 40 mg/kg body weight intraperitoneally for 5 days dissolved in 0.1 mol/L citrate buffer, pH 4.5 and Diabetic+GSNO mice were administered GSNO 100 μg/kg body weight orally dissolved in PBS after every 24 h for 8 weeks after the induction of diabetes. Animals were assessed weekly for development of diabetic encephalopathy in terms of memory deficits. All experimental procedures were done on mice at the end of study.
The microvessels were isolated by the method described by Brooks et al., (2005). Brain tissue was homogenized in microisolation buffer (103 mM NaCl, 4.7 mM KCl, 2.5 mM CaCb, 1.2 mM KH2PO4, 1.2 mM MgSO4, 15 mM HEPES, 2.5 mM NaHCO3, 10 mM D-glucose, 1 mM sodium pyruvate and 10 g/L dextran (64,000 mol wt), pH 7.4) and equal amount of 26% (w/v) dextran was added. […]
PCR Total RNA was extracted from microvessels obtained from brain tissue using TriReagent®. […] The concentration of RNA obtained was determined by 260/280 nm ratio using a Nanodrop™ Spectrophotometer (Nanodrop™ 1000, Thermo Scientific®, Waltham, USA). The integrity and overall quality of RNA was evaluated using agarose gel electrophoresis. […] The data obtained was analyzed by the LightCycler 480 Software, Version 1.5. […] Glyceraldehyde-3-phosphate dehydrogenase was used as the reference gene and the relative gene expression was determined using delta-delta Ct method as described by Pfaffl et al., (2002).

[3] = tested on: CD4+ T cells; experiment: Ex vivo culture of PLP139-151 immunized T cells from EAE mice, cytokine ELISA; assay type: in vivo, SJL mice
[4] = cortex and hippocampus, diabetic mice + GSNO 100 μg/kg oral 8 weeks, vs diabetic
[5] = T cells from GSNO (1.0 mg/kg daily from immunization) treated vs untreated EAE mice, TH0 condition
[6] = T cells from GSNO treated vs untreated EAE mice

N[C@@H](CCC(=O)N[C@@H](CSN=O)C(=O)NCC(=O)O)C(=O)O [GSNO, S-nitrosoglutathione]
RhoA S-nitrosylation [1]: increased
cellular levels of protein-associated S-nitrosothiols [1]: increased
mRNA expression of claudin-5 ([2]; GSNO treated diabetic animals): no significant change
mRNA expression of ZO-1 [2, 4]: 2 fold
mRNA expression of occludin [2, 4]: 2 fold
IFN-γ production of T cells in response to PLP139-151 stimulation [3, 5]: comparable levels
IL-17 production of T cells in response to PLP139-151 stimulation [3, 5]: significantly lower levels
GM-CSF production under TH1 and TH17 skewing conditions [3, 6]: similarly increased levels
IFN-γ production under TH1 skewing conditions [3, 6]: comparable amounts
IL-10 production under TH1 and TH17 skewing conditions [3, 6]: significantly higher amounts
IL-17 production under TH17 skewing conditions [3, 6]: EAE group produced higher levels of IL-17 than T cells isolated from GSNO+ EAE group
